For this experiment, the system named is nitric oxide release in rat tissue. Put plainly: Nitric oxide release in rat tissue exposed to hyperglycemia in vitro, with sepiapterin supplementation. To be noted: hyperglycemia 55 mM, 48 hr incubation, sepiapterin 100 μM, n=4 per group, FIG. 5. How it is done: FIG. 5. Effect of hyperglycemia (55 mM, 48 hr incubation) and supplementation of sepiapterin (SEP, 100 μM), on nitric oxide release in rat tissue. The bars represent mean f SEM. *p<0.05 non-glycemic (N.G, Control) vs. hyperglycemic (H.G); #p<0.05 N.G vs. SEP, t-test (n=4 in each group). […] Protein expression for DHFR was reduced in diabetic female rats (FIGS. 3A-3B). […] All the above findings correlated well with the impaired saliva secretion and water intake (FIGS. 1A-1B) and e/n NOS activity (FIGS. 3A-3B) as measured by dimerization in SM gland tissue. Therefore, dietary supplementation of sepiapterin improves e/n NOSα dimerization, nNOS activity, NO synthesis and saliva secretion.

Consider `C[C@H](O)C(=O)C1=Nc2c(nc(N)[nH]c2=O)NC1` [sepiapterin], for which the “NO release in the tissue exposed to hyperglycemia” value is “improved NO release”.

For the origin of these results see patent US11931364B2, “Modulation of the nitric oxide synthase pathway for oral health” (Meharry Medical College, priority 2016, dated 2024).
